Assay results reported in patent US5331094A, “Purified active somatostatin receptor” (American Cyanamid Company, priority 1992, dated 1994).
Bridge positions count the residues as written; N and C are the ends. Square brackets hold non-standard residues; d marks the D form. Peptide text beside a SMILES is read from it. * marks the point of attachment. Biotin = O=C1N[C@H]2[C@H](CS[C@H]2CCCCC(=O)*)N1; Tyr(3-I) = N[C@@H](Cc1ccc(O)c(I)c1)C(=O)O; Ahx = NCCCCCC(=O)O

Columns and labels:
SRIF receptor [1] = test: Binding of [125I]Bio-SRIF analogs to GH4 C1 membranes (CPM bound); design: species or system rat; conditions: for CPM bound/mg membrane protein (total): after the binding step; for CPM bound/mg membrane protein (non-specific): in the presence of 1 uM cold S14
Procedure: 3. Chemical cross-linking of radioligand with receptor is done after a binding step identical to the standard assay. However, the wash step is done with binding buffer minus BSA to reduce the possibility of non-specific cross-linking of radioligand with BSA. The cross-linking step is carried out as described below.
(§1) To compare the three biotinyl-SRIF analogs in terms of binding to streptavidin, the following experiment is done. [^125 I]Bio-SRIF analogs are bound to GH4 C1 membranes as described ("Methods: Receptor Binding Methods, 3"). All radioligands are at a concentration of […] cpm/ml. For each radioligand, a control for non-specific binding was done in the presence of 1 uM cold S14. CPM bound/mg membrane protein after the binding step are as follows: [^125 I]Bio-6C-S14=755,020 (total) and 43,361 (non-specific); [^125 I]Bio-12C=S14=633,134 (total) and 39,538 (nonspecific); [^125 I]Bio-S28=1,065,512 (total) and 35,049 (nonspecific). The membrane pellets are solubilized in solubilization buffer containing 0.15% deoxycholate:lysolecithin and 0.2 mM MgCl2 as described ("Methods: Membrane Solubilization"). […] One ml samples of solubilized membranes are incubated with 0.05 ml vols of streptavidin-agarose at 4°-10° C. on a tube rotator for the times shown. Non-specific binding samples are not done due to the low levels of non-specific binding. At the times shown, the […] beads are spun down and 100 ul samples of supernatant are counted. The cpm are compared to initial cpm in the sample and % binding to SA is calculated from this. Also, it should be noted that binding of cpm from the supernatant is considered to parallel the binding of R:L complex. Several observations confirm that this is a valid assumption.

SRIF receptor [2] = test: Scatchard analysis of binding of [125I]-labelled SRIF analogs to GH4 C1 membranes; design: species or system rat; conditions: GH4 C1 membranes (FIG. 2), read-out: dissociation constant (KD)
Procedure: 1. Standard Binding Assays--Binding assays are done in a binding buffer containing 50 mM HEPES (pH 7.4), 0.5% BSA and 5 mM MgCl2. The standard assay for [^125 I]SRIF analog binding to GH4 C1 membranes, done in 96 well microtiter plates (Dynataech Immulon II Removawell plates), is carried out as follows: 1. Radioligand is diluted in binding buffer+ PMSF/Baci to the desired cpm per vol. of 50 μl and then 50 μl aliquots are added to the wells. For non-specific binding samples, 5 μl of 40 μM cold S14 is also added per well. 2. Binding is initiated by adding 150 μl per well of membrane diluted to the desired concentration (10-30 ug membrane protein/well) in binding buffer+ PMSF/Baci. Plates are then covered with Linbro mylar plate sealers (Flow Labs) and placed on a Dynatech Microshaker II and binding is allowed to proceed at room temperature for 1-2 hours. Binding is stopped by centrifuging the plate for 15 minutes at 2,000×g. The supernatants are dumped off and membrane pellets washed once by addition of 200 μl of ice cold binding buffer, brief shaking and recentrifugation. Finally the individual wells are placed in 12×75 mm tubes and counted in an LKB Gammamaster counter (78% efficiency). Specific binding by this method is identical to that measured when free ligand is removed by rapid (3-5 seconds) filtration and washing on polyethyleneimine-coated glass fiber filters.
Because Bio-C6-S14, Bio-C12-S14 and Bio-S28 all contain tyrosine residues, it is possible to prepare their [^125 I] labelled analogs and carry out Scatchard analyses of their binding affinities relative to [^125 I]Tyr11-S14 (FIG. 2). As shown in the figure, the [^125 I]-labelled peptides fall in the same order of potency as their non-labelled forms. The dissociation constants (KDs) and relative binding affinities are [^125 I]Tyr11-S14 (0.1 nM)>[^125 I]Bio-S28 (0.2 nM)>[^125I]Bio-6C-S14 (0.3 nM)>[^125 I]Bio-12C-S14 (0.4 nM).

Immobilized Streptavidin [3] = molecular target: T1, Immobilized Streptavidin (Streptomyces avidinii, UniProt P22629); test: Binding of [125I]-labelled biotinyl-SRIFs (solubilized R:L complex) to immobilized streptavidin; conditions: for Initial CPM: 100 ul of initial 100,000 x g supernatant containing soluble R:L complex; for CPM (non-bound), 1 hour: 100 ul supernatant after 1 hour incubation with SA-agarose; for CPM (non-bound), 1 hour / CPM (non-bound), 3 hours: 4-10 C; for CPM (non-bound), 3 hours: 100 ul supernatant after 3 hours incubation with SA-agarose; for % Binding of Radioligand to SA-Agarose, 1 hour, % Bound: 1 hour incubation with SA-agarose; for % Binding of Radioligand to SA-Agarose, 3 hours, % Bound: 3 hours incubation with SA-agarose
T1 construct: purchased Pierce Chemical Co
Procedure: as §1

SRIF receptor [4] = test: Tracing of SRIF R:L complex with [125I]Bio-S28: membrane binding and deoxycholate:lysolecithin solubilization; design: species or system rat
Procedure: 1. Binding of biotinyl-SRIF to GH4 C1 membranes. The binding step is carried out as described in Section 4 of "Receptor Binding Methods". Incubations are for 1 hour at room temperature. In the standard purification protocol, the binding incubations contain 10 nM Bio-S29/ [^125 I]Bio-S28 is added as a tracer at levels of 5,000-100,000 cpm per mg of membrane protein. Control incubations contain 10 uM cold S14 to saturate the receptor with non-biotinylated ligand.
2. Solubilization of receptor:ligand complex. This is done as described ("Membrane Solubilization"), with 0.15% deoxycholate:lysolecithin in solubilization buffer containing 0.2 mM MgCl2, to obtain 100,000×g supernatants containing solubilized R:L complex.
(§2) A preparation of SRIF receptor is purified from 17 mg GH4 C1 pituitary cell membranes as described in "Methods: Receptor Purification". Some important features of this experiment are as follows: Two 17 mg samples of membranes are used. Both are incubated with 10^-8 M Bio-S28. However, one sample also receives 10^-5 M non-biotinyl S14 for 2-3 minutes before addition of any Bio-S28. This serves to block binding of Bio-S28 and creates a control to show non-specific binding of proteins to the streptavidin column. Also, each sample receives 1.5×10^8 cpm of [^125 I]Bio-S28 as a tracer. This is added 2-3 minutes before the addition of cold Bio-S28. After a 1-hour binding step, the membranes are washed in binding buffer without BSA and solubilized in solubilization buffer containing 0.15% deoxycholate:lysolecithin and 0.2 mM MgCl2. Each 100,000×g supernatant (17 ml) is incubated with 0.6 ml of streptavidin-agarose for 4 hours at 4°-10° C. The SA-agarose is transferred to a 0.7 cm diameter column, washed and eluted with EDTA/EGTA/GTP-gamma-S as described ("Methods: Receptor Purification").
(§3) Radioligand is followed through the procedure to estimate solubilization of R:L complex and % initial binding of R:L complex to immobilized streptavidin.

Immobilized Streptavidin [5] = molecular target: T1, Immobilized Streptavidin; test: Tracing of SRIF R:L complex with [125I]Bio-S28: adsorption to streptavidin-agarose during purification; assay type: binding
Procedure: 3. Adsorption of solubilized R:L complex to streptavidin. Immobilized streptavidin (streptavidin cross-linked to 6% beaded agarose, Pierce Chemical Co.; "SA-agarose") is washed in solubilization buffer and added to the solubilized membranes as 1/30 of the final volume. This mixture is incubated with constant stirring by end-over-end rotation for 4-5 hours at 4°-10° C. Then the mixture is applied to a column and the non-bound material is washed through. Binding of radioligand to SA-agarose is determined by comparing cpm in the 100,000×g supernatant with that in the column effluent after adsorption to SA-agarose. Finally, the column is washed with 12-15 column volumes of solubilization buffer+0.15% deoxycholate:lysolecithin +1/500 (vol/vol) 100×4pase.
as §2, §3
As discussed above, this should approximate the binding of R:L complex to streptavidin.

SRIF receptor [6] = conditions: pituitary cells; Kirk et al. 1984; cited from earlier work
[7] = 10^-8 M Bio-S28 + 10^-5 M S14 (NSB)

T1 sequence (P22629 25-183): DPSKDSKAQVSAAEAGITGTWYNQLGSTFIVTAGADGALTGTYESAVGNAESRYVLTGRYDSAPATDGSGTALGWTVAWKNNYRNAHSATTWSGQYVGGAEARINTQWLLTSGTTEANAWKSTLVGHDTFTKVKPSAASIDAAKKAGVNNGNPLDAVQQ

Compound | CPM bound/mg membrane protein (total) (SRIF receptor [1]) | CPM bound/mg membrane protein (non-specific) (SRIF receptor [1]) | Kd (SRIF receptor [2]) [pM] | Initial CPM (Immobilized Streptavidin [3]) | CPM (non-bound), 1 hour (Immobilized Streptavidin [3]) | CPM (non-bound), 3 hours (Immobilized Streptavidin [3]) | % Binding of Radioligand to SA-Agarose, 1 hour, % Bound (Immobilized Streptavidin [3]) [%] | % Binding of Radioligand to SA-Agarose, 3 hours, % Bound (Immobilized Streptavidin [3]) [%] | CPM Solubilized by Deoxycholate:Lysolecithin (%) (SRIF receptor [4]; 10^-8 M Bio-S28) | CPM Initially Bound to Membranes (SRIF receptor [4]; [7]) | CPM Solubilized by Deoxycholate:Lysolecithin (%) (SRIF receptor [4]; [7]) | CPM Initially Bound to Membranes (SRIF receptor [4]; ligand in binding step 10^-8 M Bio-S28) | Solubilized CPM Non-Bound to Streptavidin (%) (Immobilized Streptavidin [5]; 10^-8 M Bio-S28) | Solubilized CPM Non-Bound to Streptavidin (%) (Immobilized Streptavidin [5]; [7]) | specifically bound radioligand bound to streptavidin (Immobilized Streptavidin [5]; calculation from Table 2) [%] | decrease of binding of [125I]Tyr1-SRIF (SRIF receptor [6])
C[C@H](NC(=O)CCCCCNC(=O)CCCC[C@@H]1SC[C@@H]2NC(=O)N[C@@H]21)C(=O)NCC(=O)N[C@H]1CSSC[C@@H](C(=O)O)NC(=O)[C@H](CO)NC(=O)[C@H]([C@@H](C)O)NC(=O)[C@H](Cc2ccc(O)c(I)c2)NC(=O)[C@H]([C@@H](C)O)NC(=O)[C@H](CCCCN)NC(=O)[C@H](Cc2c[nH]c3ccccc23)NC(=O)[C@H](Cc2ccccc2)NC(=O)[C@H](Cc2ccccc2)NC(=O)[C@H](CC(N)=O)NC(=O)[C@H](CCCCN)NC1=O [[^125 I]Bio-6C-S14] ({Biotin-Ahx}-AGCKNFFWKT[Tyr(3-I)]TSC-OH; disulfide 3-14) | 755,020 CPM bound/mg membrane protein | 43,361 CPM bound/mg membrane protein | 300 | 63,490 CPM | 28,381 CPM | 16,228 CPM | 55 | 74 | – | – | – | – | – | – | – | –
C[C@H](NC(=O)CCCCCNC(=O)CCCCCNC(=O)CCCC[C@@H]1SC[C@@H]2NC(=O)N[C@@H]21)C(=O)NCC(=O)N[C@H]1CSSC[C@@H](C(=O)O)NC(=O)[C@H](CO)NC(=O)[C@H]([C@@H](C)O)NC(=O)[C@H](Cc2ccc(O)c(I)c2)NC(=O)[C@H]([C@@H](C)O)NC(=O)[C@H](CCCCN)NC(=O)[C@H](Cc2c[nH]c3ccccc23)NC(=O)[C@H](Cc2ccccc2)NC(=O)[C@H](Cc2ccccc2)NC(=O)[C@H](CC(N)=O)NC(=O)[C@H](CCCCN)NC1=O [[^125 I]Bio-12C-S14] ({Biotin-Ahx-Ahx}-AGCKNFFWKT[Tyr(3-I)]TSC-OH; disulfide 3-14 (inferred); C-terminus assumed) | 633,134 CPM bound/mg membrane protein | 39,538 CPM bound/mg membrane protein | 400 | 54,344 CPM | 23,391 CPM | 13,071 CPM | 57 | 76 | – | – | – | – | – | – | – | –
CC(C)C[C@H](NC(=O)[C@H](C)NC(=O)[C@@H]1CCCN1C(=O)[C@H](CC(N)=O)NC(=O)[C@H](CO)NC(=O)[C@H](CC(N)=O)NC(=O)[C@H](C)NC(=O)[C@H](CO)NC(=O)CCCC[C@@H]1SC[C@@H]2NC(=O)N[C@@H]21)C(=O)N[C@@H](C)C(=O)N1CCC[C@H]1C(=O)N[C@@H](CCCNC(=N)N)C(=O)N[C@@H](CCC(=O)O)C(=O)N[C@@H](CCCNC(=N)N)C(=O)N[C@@H](CCCCN)C(=O)N[C@@H](C)C(=O)NCC(=O)N[C@H]1CSSC[C@@H](C(=O)O)NC(=O)[C@H](CO)NC(=O)[C@H]([C@@H](C)O)NC(=O)[C@H](Cc2ccc(O)c(I)c2)NC(=O)[C@H]([C@@H](C)O)NC(=O)[C@H](CCCCN)NC(=O)[C@@H](Cc2c[nH]c3ccccc23)NC(=O)[C@H](Cc2ccccc2)NC(=O)[C@H](Cc2ccccc2)NC(=O)[C@H](CC(N)=O)NC(=O)[C@H](CCCCN)NC1=O [[^125 I]Bio-S28] (Biotin-SANSNPALAPRERKAGCKNFF[dW]KT[Tyr(3-I)]TSC-OH; disulfide 17-28) | 1,065,512 CPM bound/mg membrane protein | 35,049 CPM bound/mg membrane protein | 200 | 92,534 CPM | 31,645 CPM | 17,098 CPM | 66 | 82 | 91 | 9,316 CPM | 73 | 59,132 CPM | 28 | 15 | 72 | –
pertussis toxin | – | – | – | – | – | – | – | – | – | – | – | – | – | – | – | more than 95%
